System: CD14+ blood monocytes
Assay: Multiplex xMAP cytokine production, direct stimulation of monocytes
Assay type: cell-based, human
Conditions: 24 h
Method: Primary peripheral blood mononuclear cells (PBMCs) collected from healthy donors were purchased from American Type Culture Collection (ATCC PCS-800-011). Primary CD14^+ blood monocytes were isolated from PBMCs by adherence according to standard technique. Monocyte-derived mature dendritic cells (moDCs) were obtained from CD14^+ blood monocytes according to the previously reported protocol. Briefly, blood monocytes were incubated in a complete RPMI-1640 medium (Capricorn Scientific, Ebsdorfergrund, Germany), containing 10% fetal bovine serum (FBS, Capricorn Scientific, Ebsdorfergrund, Germany), 1× antibiotic-antimycotic solution (Invitrogen, Waltham, MA, USA), 800 U/mL rhGM-CSF (Sci-Store, Moscow, Russia) and 500 U/mL rhIL-4 (Sci-Store) for 3 days in CellXpert C170i CO2-incubator (Eppendorf, Hamburg, Germany). Fresh complete RPMI-1640 medium with rhGM-CSF and rhIL-4 was added to the culture on day 3. On day 5, fresh complete RPMI-1640 containing 100 U/mL rhTNF-α (Sigma-Aldrich, St. Louis, MO, USA) as well as 800 U/mL rhGM-CSF and 500 U/mL rhIL-4 was added and the culture was incubated for another 4 days until full maturation.
Monocytes and moDCs were seeded into the wells of 48- and 24-well plates in the complete RPMI-1640 medium supplemented with 10% human AB serum (HABS, Capricorn Scientific) without antibiotics 24 h prior to the experiment, and kept in a humidified CO2-incubator (5% CO2, 37 °C). After 24 h, the medium in the wells of the 48-well plate was replaced by fresh complete RPMI-1640 medium with 10% HABS, supplemented with 2 µM of Psd1 for the sample wells or fresh medium alone for the control wells. Medium in the wells of the 24-well plate was replaced by fresh complete RPMI-1640 medium with 10% human serum without antibiotics. Then, Millicell inserts with Caco-2 monolayers with TEER > 400 Ωcm^2 were placed into the wells of the 24-well plate, containing monocytes or moDCs. Wells with Millicell inserts with Caco-2 monolayers without immune cells were used as control wells. Medium in apical chambers of Millicell inserts was replaced by fresh complete RPMI-1640 with 10% human serum medium containing Psd1 at the final concentration of 2 µM or Candida albicans at the concentration of 5 × 10^4 cells/mL or yeast cells together with the pea defensin at the same concentration. Fresh complete RPMI-1640 medium only with 10% human serum and without antibiotics was used in control wells. Plates were kept in CO2-incubator (5% CO2, 37 °C) for another 24 h. Culture supernatants from the wells of the 48-well plate and basolateral chambers of the 24-well plate were collected and stored at −70 °C degrees less than one month prior to the analytes assessment.
The following 48 analytes were measured at a protein level by multiplex xMAP technology using the MILLIPLEX Human Cytokine/Chemokine/Growth Factor Panel A kit (HCYTA-60K-PX48, Merck, Darmstadt, Germany): sCD40L, EGF, Eotaxin-1/CCL11, FGF-2/FGF-basic, Flt-3 ligand, Fractalkine/CX3CL1, G-CSF, GM-CSF, GROα/CXCL1, IFNα2, IFNγ, IL-1α, IL-1β, IL-1RA, IL-2, IL-3, IL-4, IL-5, IL-6, IL-7, IL-8/CXCL8, IL-9, IL-10, IL-12(p40), IL-12(p70), IL-13, IL-15, IL-17A/CTLA8, IL-17E/IL-25, IL-17F, IL-18, IL-22, IL-27, IP-10/CXCL10, MCP-1/CCL2, MCP-3/CCL7, M-CSF, MDC/CCL22, MIG/CXCL9, MIP-1α/CCL3, MIP-1β/CCL4, PDGF-AA, PDGF-AB/BB, RANTES/CCL5, TGFα, TNFα, TNFβ, and VEGF-A. Multiplex-based assay read-out was performed using the MAGPIX system (Merck) with the xPONENT 4.2 software (Merck) in accordance with the manufacturer’s instruction with overnight incubation of the samples with primary antibodies. A final analysis was carried out with the MILLIPLEX Analyst v5.1 software (Merck). Measurements were performed twice for each sample. Release of the analytes in control and experimental samples was compared with an unpaired two-sample t-test using GraphPad Prism v.8.0.1 (GraphPad Software, Inc., San Diego, CA, USA). The p values ≤ 0.05 were considered significant.

Psd1: pea defensin from Pisum sativum (UNIPROT P81929), recombinant peptide overexpressed in Escherichia coli (KTCEHLADTYRGVCFTNASCDDHCKNKAHLISGTCHNWKCFCTQNC; UniProt P81929 1-46, looked up)
EGF level (Mono+Psd1, 2 µM, supernatant): 8.15 pg/mL
Eotaxin level (Mono+Psd1, 2 µM, supernatant): <3.52↓ pg/ml
FGF-2 level (Mono+Psd1, 2 µM, supernatant): 41.38 pg/mL
FLT-3L level (Mono+Psd1, 2 µM, supernatant): 0.65 pg/mL
Fractalkine level (Mono+Psd1, 2 µM, supernatant): <17.82↓ pg/ml
G-CSF level (Mono+Psd1, 2 µM, supernatant): 52.17 pg/mL
GM-CSF level (Mono+Psd1, 2 µM, supernatant): 12.61 pg/mL
GROa level (Mono+Psd1, 2 µM, supernatant): 1254 pg/mL
IFNa2 level (Mono+Psd1, 2 µM, supernatant): 12.78 pg/mL
IFNg level (Mono+Psd1, 2 µM, supernatant): <2.23↓ pg/ml
IL-1RA level (Mono+Psd1, 2 µM, supernatant): 4.01 pg/mL
IL-1a level (Mono+Psd1, 2 µM, supernatant): 14.17 pg/mL
IL-1b level (Mono+Psd1, 2 µM, supernatant): <2.26↓ pg/ml
IL-2 level (Mono+Psd1, 2 µM, supernatant): 1.12 pg/mL
IL-3 level (Mono+Psd1, 2 µM, supernatant): <0.60↓ pg/ml
IL-4 level (Mono+Psd1, 2 µM, supernatant): <1.14↓ pg/ml
IL-5 level (Mono+Psd1, 2 µM, supernatant): <0.30↓ pg/ml
IL-6 level (Mono+Psd1, 2 µM, supernatant): 478.09 pg/mL
IL-7 level (Mono+Psd1, 2 µM, supernatant): <0.38↓ pg/ml
IL-8 level (Mono+Psd1, 2 µM, supernatant): 6178 pg/mL
IL-9 level (Mono+Psd1, 2 µM, supernatant): 3.19 pg/mL
IL-10 level (Mono+Psd1, 2 µM, supernatant): 22.94 pg/mL
IL-12 (p40) level (Mono+Psd1, 2 µM, supernatant): 19.24 pg/mL
IL-12 (p70) level (Mono+Psd1, 2 µM, supernatant): <1.68↓ pg/ml
IL-13 level (Mono+Psd1, 2 µM, supernatant): 11.06 pg/mL
IL-15 level (Mono+Psd1, 2 µM, supernatant): 1.44 pg/mL
IL-17A level (Mono+Psd1, 2 µM, supernatant): 3.18 pg/mL
IL-17E/IL-25 level (Mono+Psd1, 2 µM, supernatant): <18.85↓ pg/ml
IL-17F level (Mono+Psd1, 2 µM, supernatant): <19.03↓ pg/ml
IL-18 level (Mono+Psd1, 2 µM, supernatant): 0.8 pg/mL
IL-22 level (Mono+Psd1, 2 µM, supernatant): 10.35 pg/mL
IL-27 level (Mono+Psd1, 2 µM, supernatant): 59.83 pg/mL
IP-10 level (Mono+Psd1, 2 µM, supernatant): 165.32 pg/mL
M-GSF level (Mono+Psd1, 2 µM, supernatant): 29.48 pg/mL
MCP-1 level (Mono+Psd1, 2 µM, supernatant): 6617 pg/mL
MCP-3 level (Mono+Psd1, 2 µM, supernatant): 371.63 pg/mL
MDC level (Mono+Psd1, 2 µM, supernatant): 864.86 pg/mL
MIG level (Mono+Psd1, 2 µM, supernatant): 1166 pg/mL
MIP-1a level (Mono+Psd1, 2 µM, supernatant): 118.6 pg/mL
MIP-1b level (Mono+Psd1, 2 µM, supernatant): 254.87 pg/mL
PDGF-AA level (Mono+Psd1, 2 µM, supernatant): 26.77 pg/mL
PDGF-AB/BB level (Mono+Psd1, 2 µM, supernatant): 543.88 pg/mL
RANTES level (Mono+Psd1, 2 µM, supernatant): 59.35 pg/mL
TGF-a level (Mono+Psd1, 2 µM, supernatant): 2.23 pg/mL
TNFa level (Mono+Psd1, 2 µM, supernatant): 90.69 pg/mL
TNFb level (Mono+Psd1, 2 µM, supernatant): 2.7 pg/mL
VEGFa level (Mono+Psd1, 2 µM, supernatant): 4.16 pg/mL
sCD40L level (Mono+Psd1, 2 µM, supernatant): 98.67 pg/mL
increase in IL-12, IL-15, IL-27 and MCP-1 (monocytes, 2 μM): failed to reach statistical significance
production of TNFα, IL-6, IL-8, IP-10, MCP-3, and G-CSF (monocytes, 2 μM): increased

Reference: article PMC10178127, “Immunomodulatory Effects of the Pea Defensin Psd1 in the Caco-2/Immune Cells Co-Culture upon Candida albicans Infection” (International Journal of Molecular Sciences, 2023)
